The values below come from patent US12285437B2 (The Research Foundation for The State University of new York, priority 2019, dated 2025).

Data set [1] is described as follows: HPLC assay of Dox release from DMA prodrugs 2/4/6 at different pH values. Conditions: 37° C., pH 7.4, 10 h. Format: physicochemical. Here is the method: The pH-dependence of drug release from Dox-DMA prodrugs as followed in HPLC assays. To test the pH-sensitivity of drug release, solutions of a DMA prodrug were adjusted to have pH values between 6.0 and 7.4. […] The HPLC rans were carried out with pH 8 solvents so that the DMA prodrug would not decompose during the HPLC analysis. Areas under the peaks were integrated to give the percentages.
The pH of the DMA prodrug solution was adjusted to different pH values in the range of pH 7.4-6.0. […] Representative HPLC traces are shown in ESI FIGS. S24-S29 (see these figures and their captions for more detailed information).

Data set [2] relates to ES2 cells. As to the kind of experiment: Imaging studies (confocal microscopy). It is filed as cell-based, human. The method, then: Afterwards, the treatment solution was removed; the nuclei of the cells were labeled with staining dye Hoechst 33342; and then images were taken on a scanning confocal microscope.
Imaging studies (confocal microscopy). Approximately 8,000 ES2 cells were seeded on a colIagen-coated glass dish (MatTek Corporation, part No. P35GCOL-0-10-C) and cultured in McCoy's 5A medium with 10% fetal bovine serum and 1% penicillin-streptomycin at 37° C. in the incubator (5% CO2) overnight. […] After treatment solution was removed, the cells were washed 1× with 100 μL of DMEM/F12 pH-specific media. Prior to fluorescence imaging, the nuclei of cells were stained with 1 μg/mL Hoechst 33342 in PBS for 20 min at 37° C. in the incubator. Afterwards, cells stayed in pH-specific DMEM/F12 media during imaging. […] The images in FIGS. 33-36 were processed using LAS X and ImageJ.

Data set [3] relates to ES-2 human ovarian cancer cells. As to the kind of experiment: pH-dependent anti-proliferation assay (MTS; alamar Blue for FIG. 7I). Conditions: for Cell Viability Average (Avg): FIG. 7A, ES-2, 6 hr. The text has this:
pH-dependent anti-proliferation assays with cells.
NaOH to adjust the pH to 9.9.

Data set [4] concerns PC-3 human prostate cancer cells. As to conditions: FIG. 9B, PC3, […], 10 μM.
Description: (§1) pH-dependent anti-proliferation assays with cells. In 96-well plates, ˜3,000 cells were seeded per well then grown for 24-48 hr until 30-40% confluency. […] For serum effect cell plate data shown in FIG. 5I, cell viability was measured using alamar Blue assay (i.e., growth media was replaced with 45 μL of pH 7.4 DMEM/F-12 media without phenol red, 5 μL of alamar Blue reagent (10×) was added; fluorescence at 590 nm was recorded after excitation at 560 nm at 1 hr afterwards).
(§2) The reaction solution was allowed to stand at rt for 1 hr in the dark, during which the pH decreased to ˜9.6. After 1 hr, the reaction solution was split into two 50-μL portions (for pH 7.4 vs. pH 6.2-6.8 cell experiments). The pH of one portion was adjusted to pH 8 (for pH 7.4 cell experiments) or pH 7 (for pH 6.2-6.8 cell experiments). Subsequently, the solution was diluted 30-fold (to 10 μM) with pH 7.4 or pH 6.2-6.8 cell media (final volume 1.5 mL) and then filtered (0.2 micron) before used in cell experiments.
Data set [5] has as its system SKOV3 human ovarian cancer cells. Conditions: FIG. 9A, 10 μM.
Description: as §1, §2
For data set [6], the system named is ES2 ovarian cancer cells. As to the kind of experiment: Antiproliferation assays against ES2 cancer cells at different pH values. It is filed as cell-based, human. Here is the method: For cell experiments, a pH 8 or pH 10 (directly from DMI to DMA conversion) solution of DMA 2/4/6 was sterilized by filtering through a 0.2-micron membrane. […] At this point, small amounts of 10 (or 25) mM of sterile aq.
Antiproliferation assays against ES2 cancer cells at different pH values. […] Treatment solution volume was 50-100 μL per well, with a set volume per well for all wells in a plate.

In data set [7] the test system is MDA-MB-231 human breast cancer cells.
Description: as §1, §2
The subject of data set [8] is NIH:OVCAR3 human ovarian cancer cells.
Description: as §1, §2

Where two headings read alike, the source gives them in different places.

In the case of `COc1cccc2c1C(=O)c1c(O)c3c(c(O)c1C2=O)C[C@@](O)(C(=O)CO)C[C@@H]3O[C@H]1C[C@H](N2C(=O)C(C)=C(CCC(=O)O)C2=O)[C@H](O)[C@H](C)O1` [Dox-DMI 1], the DMI formed result in data set [1] was “about 13%”. In data set [2] (ES2, 8 μM, 1 h), the “Dox channel signal among the DMI byproducts” value was “more signals”. Moreover, the “Dox fluorescence signals in cells, pH 6.7 vs. 7.7” value in data set [2] (ES2, 1 h, 4 μM Dox or 8 μM prodrug/DMI) is reported as “higher at pH 6.7 than 7.7”.

Consider `COc1cccc2c1C(=O)c1c(O)c3c(c(O)c1C2=O)C[C@@](O)(C(=O)CO)C[C@@H]3O[C@H]1C[C@H](N2C(=O)C(C)=C(CCC(=O)NCCSSC[C@H](N)C(=O)O)C2=O)[C@H](O)[C@H](C)O1` [Dox-DMI-Cys 5], for which the DMI formed in data set [1] was determined as 26%.

Take `COc1cccc2c1C(=O)c1c(O)c3c(c(O)c1C2=O)C[C@@](O)(C(=O)CO)C[C@@H]3O[C@H]1C[C@H](N2C(=O)C(C)=C(CCC(=O)NCCSSC[C@H](NC(=O)CC[C@H](N)C(=O)O)C(=O)NCC(=O)O)C2=O)[C@H](O)[C@H](C)O1` [Dox-DMI-GSH 7, Doxorubicin Disubstituted Maleimide Glutathione Conjugate]: the “toxicity compared to DMA 8” value in data set [3] (ES-2, 6 h (FIG. 7A)) was “much less toxicity”. The “Cell Viability Average (Avg)” value in data set [3] (0.5 μM, pH 6.6-6.8) turned out to be 90%; in data set [3] (0.5 μM, pH 7.2-7.5), 97%; in data set [3] (1 μM, pH 6.6-6.8) it was 79%; in data set [3] (1 μM, pH 7.2-7.5), 80%. Also, the “Cell Viability Avg” value was 90% in data set [4] (pH 6.3-6.4), 84% in data set [4] (pH 7.5-7.6), 75% in data set [5] (pH 6.3-6.5) and 63% in data set [5] (pH 7.5-7.6).

Consider `COc1cccc2c1C(=O)c1c(O)c3c(c(O)c1C2=O)C[C@@](O)(C(=O)CO)C[C@@H]3O[C@H]1C[C@H](N2C(=O)C(C)=C(CCC(=O)N[C@@H](CCC(=O)O)C(=O)O)C2=O)[C@H](O)[C@H](C)O1` [Dox-DMI-Glu 3], for which the DMI formed in data set [1] is 26%.

Consider `CC1=C(CCC(=O)O)C(=O)OC1=O` [anhydride 7, 2-propionic-3-methylmaleic anhydride], for which the “cytotoxicity of anhydride byproduct of drug release” value (shortened to “cytotoxicity”) was “harmless to cells” in data set [6] (FIG. 29D, ES2, 2, 20 or 200 μM, pH 6.7-6.8 or 7.5-7.6, 2 h) and “not cytotoxic” in data set [6] (FIG. 29D, ES2, 2, 20 or 200 μM, pH 6.7-6.8 or 7.5-7.6, 2 h, listed as anhydride byproduct 7).

For the compound `CC1=C(CCC(=O)N[C@@H](CCC(=O)O)C(=O)O)C(=O)OC1=O` [byproduct 10, (3-(4-methyl-2,5-dioxo-2,5-dihydrofuran-3-yl)propanoyl)glutamic acid], the “cytotoxicity” value in data set [6] (FIG. 30D, ES2, 3, 30 or 300 μM, pH 6.5-6.6 or 7.4-7.5, 3 h) was “not cytotoxic”.

Turning to `CC1=C(CCC(=O)NCCSSC[C@H](N)C(=O)O)C(=O)OC1=O` [byproduct 12], the “cytotoxicity” value is “did not show any cytotoxicity” in data set [6] (FIG. 31D, ES2, 2, 20 or 200 μM, pH 6.7 or 7.4-7.5, 2 h); “no cytotoxic effect” in data set [6] (FIG. 31D, ES2, 2, 20 or 200 μM, pH 6.7 or 7.4-7.5, 2 h, listed as anhydride 12); “not cytotoxic” in data set [6] (FIG. 31D, ES2, 2, 20 or 200 μM, pH 6.7 or 7.4-7.5, 2 h, listed as anhydride byproduct 12).

“Doxorubicin Disubstituted Maleamic Acid Glutathione Conjugate [Dox-DMA-GSH 8]”: the “fold more potent at pHe 6.7 (than at pHe 7.4)” value in data set [3] (ES-2, 6 h) is listed as approximately 2 fold. Moreover, in data set [3] (ES-2, 6 h, pHe 6.7), the “potency of 1 mM of prodrug compared to 0.5 mM of free Dox” value is reported as “more potent”. Moreover, in data set [3] (ES-2, pHe titration (FIG. 7E)), the “pHe at which the maximum effect was reached” value worked out at 6.8. For the same compound, the “higher potency than the free drug (3 μM)” value in data set [7] (MDA-MB231, 2-3 h, 6-8 μM prodrug, pHe 6.3-6.4) is recorded as 2-3 ×; in data set [8] (OVCAR3, 2-3 h, 6-8 μM prodrug, pHe 6.3-6.4), 2-3 ×. For the same compound, the “pHe at which maximum effects were seen” value worked out at 6.5 in data set [7] (MDA-MB231, pHe titration (FIG. 7F)) and 6.5 in data set [8] (OVCAR3, pHe titration (FIG. 7G)).
